In data set [1] the test system is aMCI subjects. The data set can be described thus: neuropsychological tests outside the scanner (Buschke, Benton, Verbal Paired Associates). The data set is classed as in vivo, human. The note with it: 125 mg twice a day for two weeks. An excerpt: All participants undergo neuropsychological evaluation at the time of assessment for treatment efficacy (Visits 1 and 2), as well as at the Baseline Visit. The evaluation occurs outside of the scanner and includes the Buschke Selective Reminding Test (Buschke and Fuld, 1974) and the Verbal Paired Associates subtest, the Logical Memory subtest, the Visual Reproduction subtest of the Wechsler Memory Scale-Revised (WMS-R) (Wechsler, 1997), and the Benton Visual Retention Test, as these tasks are particularly sensitive to medial temporal lobe function and early memory problems (Marquis et al., 2002 and Masur et al., 1994). Additionally, subjects are asked to complete tests of more general cognitive function such as tests to assess general mental status, executive function, attention and general naming ability. All neuropsychological tests are administered by a trained research assistant during a 60-minute session. As the three neuropsychological assessments in this study occur within a time period of 8 weeks, different versions of the neuropsychological tests are used to minimize test specific practice effects. Breaks are provided to the subject as needed.

Data set [2] can be described thus: levetiracetam blood plasma levels in aged-impaired rats. The note with it: rat. The format is in vivo. As for the experimental part: Rats: Blood is drawn from aged-impaired rats by cardiac puncture during perfusion after a 28-day levetiracetam treatment period and is sent for analysis of levetiracetam plasma levels by MedTox Laboratories in St. Paul, Minn.
The levetiracetam blood levels in the aged-impaired rats treated with daily levetiracetam doses of 10 mg/kg and 60 mg/kg can be use to estimate the levetiracetam blood level of its daily dose of 20 mg/kg. This extrapolation gives an estimated levetiracetam blood level of 7.6 mcg/ml for the 20 mg/kg daily dose.

Data set [3] has as its system aMCI subjects. Nature of the data set: explicit 3-alternative forced choice task (lure-based memory performance). The format is in vivo, human.
The test system of data set [4] is reelin in Entorhinal Cortex (EC2). Nature of the data set: reelin mRNA in situ hybridization in entorhinal cortex after 4-week levetiracetam. The format is in vivo, rat. The conditions noted are these: 10 mg/kg/day, osmotic minipumps, 28 days; vs AI-VEH t(13)=2.386, p=0.033. Here is the method: Under isoflurane anesthesia, memory-impaired aged rats are implanted subcutaneously in the intrascapular region with osmotic mini-pumps (ALZET,
Durect Corporation, Cupertino, Calif.) with levetiracetam (10 mg/kg/day) or saline vehicle for four weeks prior to perfusion. Young rats, which served as controls, receive either saline vehicle in mini-pumps or no implantation.
At the end of the 4-week treatment period, rats are anesthetized with isoflurane and perfused transcardiacally with 0.1 M phosphate buffer saline, followed by 4% paraformaldehyde in phosphate buffer. Brains are removed and post-fixed in paraformaldehyde overnight. The brains are then moved into 4% paraformaldehyde in phosphate buffer containing 16% sucrose. […]
Probe templates are synthesized as described in Haberman et al. (2008). […] The final probe is resuspended in RNase-free water and the specific activity is determined by scintillation counter.
In situ hybridization is carried out as described by Haberman et al., (2008). […] Slides are dried overnight, exposed to a phosphoimager screen, and quantified by using ImageQuant (GE Healthcare). Digital images are acquired of entorhinal cortical sections from the same levels for all animals and the subregion of interest is outlined and quantified. […]

“Also recorded” adds a separate entry of the source. Read-outs that look alike come from different tables or passages of the source.

As for `CC[C@@H](C(N)=O)N1CCCC1=O` [levetiracetam, (2S)-2-(2-oxopyrrolidin-1-yl) butanamide], in the data set on aMCI subjects [1], the “performance in Benton Visual Retention Test” value is recorded as “fails to rescue performance”. Moreover, the “performance in Buschke Selective Reminding Test—Delayed Recall” value with aMCI subjects [1] is reported as “fails to rescue performance”. Further, the “performance in Verbal Paired Associates Test—Delayed Recall” value in the data set with aMCI subjects [1] was “fails to rescue performance”. Besides, the “performance in Verbal Paired Associates Test—Recognition” value in the data set on aMCI subjects [1] was “fails to rescue performance”. Besides, the concentration at 28 days in data set [2] (20 mg/kg daily dose, extrapolated from 10 and 60 mg/kg, read-out: estimated levetiracetam blood level) is 7600 ng/mL; in data set [2] (other: osmotic minipumps, 10 mg/kg/day, 28 days, SEM±0.255, read-out: mean levetiracetam blood plasma level), 3800 ng/mL; in data set [2] (other: osmotic minipumps, 20 mg/kg daily dose, extrapolated from 10 and 60 mg/kg, read-out: estimated levetiracetam blood level), 7600 ng/mL. Moreover, the “performance in the explicit 3-alternative forced choice task” value is listed as “further improved performance in cognitive tests; also recorded: improves significantly” with aMCI subjects [3] (62.5 mg BID for two weeks vs placebo, p=0.041); “improves significantly” in the data set with aMCI subjects [3] (125 mg twice a day for two weeks vs placebo, p=0.039); “does not significantly improve” in the data set with aMCI subjects [3] (250 mg BID for two weeks vs placebo, p=0.2396). Also, the “levels of reelin (mRNA expression) in Entorhinal Cortex (EC2)” value in data set [4] was “restores the levels of reelin; also recorded: significantly increases the expression of reelin; also recorded: restores reelin in Entorhinal Cortex (EC2)”.

Values taken from patent US10154988B2, “Methods and compositions for treating schizophrenia” (The Johns Hopkins University, priority 2012, dated 2018).
